{"source": "patent US6602896B1", "about": "“p38MAPK inhibitor and uses thereof” (The Board of Trustees of the University of Arkansas, priority 1999, dated 2003)", "key": {"[1]": {"system": "p46/54^JNK", "assay": "Immunoblot of phospho-p46/54JNK in HepG2 cells", "format": "cell-based, human", "conditions": "SB202190 2.5 μM", "method": "2×10^5 cells were grown and treated as described in FIG. 1. After the indicated times, equal amounts of cell lysates were blotted with anti-phospho-p42/44^MAPK antibody, phosphorylation-independent p42/44^MAPK antibody, anti-phospho p46/54^JNK antibody, anti-phospho-MEK-1/2, or phosphorylation-independent MKP-1. […]\n(§1) Proteins were fractionated by SDS-PAGE with an 10% acrylamide separation gel, and the separated proteins were transferred to nitrocellulose, and processed as described previously (43, 44). […] After further washing in Tris/NaCl/Tween-20, membranes were incubated for 1 h with horseradish peroxidase-linked anti-IgG secondary antibody (Bio-Rad, diluted 1:5000), and immunoreactive proteins were detected by ECL as described by the supplier. Quantitative analyses of protein levels were performed by densitometric scanning of the autoradiograms, and are representative of 3 or more independent experiments.\n(§2) HepG2 cells were incubated with SB202190, and the activity of p42/44^MAPK and p46/54^JNK was determined by immunoblot analysis with antibodies that recognized the activated phosphorylated forms of these kinases in cell extracts obtained at different times."}, "[2]": {"system": "p42/44^MAPK", "assay": "Immunoblot of phospho-p42/44MAPK in HepG2 cells", "format": "cell-based, human", "conditions": "SB202190 2.5 μM", "method": "(§3) 2×10^5 cells were grown and treated as described in FIG. 1. After the indicated times, equal amounts of cell lysates were blotted with anti-phospho-p42/44^MAPK antibody, phosphorylation-independent p42/44^MAPK antibody, anti-phospho p46/54^JNK antibody, anti-phospho-MEK-1/2, or phosphorylation-independent MKP-1.\nHepG2 cells were cultured in the absence or presence of 1 μM staurosporine or 5 μM PD98059 for 30 min. SB202190 (2.5 μM) was then added to the cells for 4 h, cell lysate was subjected to immunoblotting to measure the phosphorylation levels of p42/44^MAPK and MEK-1/2.\nHuman hepatoma cell line HepG2 and its derivative HepG2-ΔRaf-1:ER cell line that stably expresses the ΔRaf-1:ER chimera were maintained as monolayer cultures in a humidified 5% CO2 atmosphere at 37° C. in Eagle's minimum essential medium (EMEM) (Bio Whittaker, Md.) supplemented with 10% fetal bovine serum (FBS) (Life Technologies Inc.), 2 mM L-glutamine, 20 units/ml penicillin and 20 μg/ml streptomycin sulphate.\n(§4) Proteins were fractionated by SDS-PAGE with an 10% acrylamide separation gel, and the separated proteins were transferred to nitrocellulose, and processed as described previously (43, 44). Briefly, membranes were incubated in 20 mM Tris-HCl, pH 7.6, 137 mM NaCl, 0.2% v/v Tween-20 (Tris/NaCl/Tween-20) with 5% w/v non-fat dried milk for 1 h, washed in Tris/NaCl/Tween-20 (3×5 min), and incubated for 1 h with primary antibody in Tris/NaCl/Tween-20 containing 1% milk at room temperature for non phospho-specific antibodies and overnight at 4° C. for phospho-specific antibodies. The following dilutions were used for individual antibodies against different proteins: p42/44^MAPK (1:1600); phosphop-42/44^MAPK (1:1000); phosphop-46/54^JNK (1:1000); phospho-p38^MAPK (1:1600); phospho-MEK-1/2 (1:1000); MKP-1 (1:1500). After further washing in Tris/NaCl/Tween-20, membranes were incubated for 1 h with horseradish peroxidase-linked anti-IgG secondary antibody (Bio-Rad, diluted 1:5000), and immunoreactive proteins were detected by ECL as described by the supplier. Quantitative analyses of protein levels were performed by densitometric scanning of the autoradiograms, and are representative of 3 or more independent experiments.\nas §2"}, "[3]": {"system": "MEK-1/2", "assay": "Immunoblot of phospho-MEK-1/2 in HepG2 cells", "format": "cell-based, human", "conditions": "SB202190 2.5 μM", "method": "as §3\nHepG2 cells were cultured in the absence or presence of 1 μM staurosporine or 5 μM PD98059 for 30 min. SB202190 (2.5 μM) was then added to the cells for 4 h, cell lysate was subjected to immunoblotting to measure the phosphorylation levels of p42/44^MAPK and MEK-1/2. […]\nas §1"}, "[4]": {"system": "p42/44^MAPK", "conditions": "even at higher concentrations (100 μM); cited from earlier work"}, "[5]": {"system": "LDL receptor expression", "assay": "Northern blotting of LDL receptor mRNA in HeLa cells", "format": "cell-based", "conditions": "SB202190 (2.5 μM) 4 h", "method": "PD98059 was added 30 min prior to addition of SB202190. After the indicated times, total RNA was isolated and subjected to Northern blotting. […] Total RNA was isolated using TRIzol, and Northern blotting was done essentially as described earlier (43, 44). Briefly, 20 μg total cellular RNA was fractionated on 1% formaldehyde agarose gel and transferred to Zeta Probe membrane by capillary blotting. RNA blots were hybridized with LDL receptor and squalene synthase specific single-stranded M13 probes labeled with [α-^32P ]dCTP. Hybridized filters were washed and exposed to Kodak X-ray film. The relative intensities of specific bands were determined densitometrically within the linear range of the film on a model 300A laser densitometer (Molecular […], Calif.) with Image Quant software. LDL receptor mRNA was normalized to squalene synthase (SS) (included in this study) or to α-actin (data not shown) mRNA level, and data for each point were plotted as the percentage of LDL receptor mRNA as compared to controls."}, "[6]": {"system": "squalene synthase (SS)", "assay": "Northern blotting of squalene synthase (SS) mRNA in HepG2 cells", "format": "cell-based, human", "conditions": "SB202190 2.5 μM", "method": "5×10^5 cells were plated on day 0. On day 2, cells were refed with fresh medium. On day. 4, cells were either left untreated (0) or treated for the indicated times with SB202190 (2.5 μM) in medium containing 0.5% FBS. Total RNA was isolated and subjected to Northern blotting to determine amounts of LDL receptor, squalene synthase (SS) genes, and actin mRNAs. Autoradiographs were quantitated densitometrically. LDL receptor mRNA levels were normalized to actin mRNA levels. In the bottom panel, results are expressed as the fold induction by SB 202190 as compared with uninduced cells (set at 1). Values obtained are the averages of three separate experiments, with the standard deviations shown. […]\nTotal RNA was isolated using TRIzol, and Northern blotting was done essentially as described earlier (43, 44). […] The relative intensities of specific bands were determined densitometrically within the linear range of the film on a model 300A laser densitometer (Molecular Dyanamics, Calif.) with Image Quant software. […]"}, "[7]": {"system": "p38^MAPK α- and β-isoforms", "conditions": "cited from earlier work"}, "[8]": {"system": "p42/44^MAPK", "assay": "Western blotting of phospho-p42/44MAPK in HeLa cells", "format": "cell-based", "conditions": "SB202190 (2.5 μg/ml) in 0.5% FBS", "method": "as §4"}}, "note": "Entries after “also recorded” stand apart in the source; their conditions may differ."}
{"smiles": "Oc1ccc(-c2nc(-c3ccc(F)cc3)c(-c3ccncc3)[nH]2)cc1", "note": "[SB202190, 4-(4-Fluorophenyl)-2-(4-hydroxyphenyl)-5-(4-pyridyl) 1H-imidazole]", "values": [{"measurement": "effect on activity or levels of p46/54JNK", "setting": "[1]", "value": "little or no effect"}, {"measurement": "activation of p42/44MAPK (phosphorylation)", "setting": "[2]", "value": "delayed and prolonged activation"}, {"measurement": "effect on p42/44MAPK protein levels", "setting": "[2]", "value": "no effect on p42/44^MAPK protein levels"}, {"measurement": "time of maximal p42/44MAPK activation after stimulation", "setting": "[2]", "value": "4 to 8", "unit": "h"}, {"measurement": "time of weak p42/44MAPK activation after treatment", "setting": "[2]", "value": 1, "unit": "h"}, {"measurement": "time until which activated p42/44MAPK remained elevated", "setting": "[2]; 24 hours was maximum time point measured", "value": "≥ 24", "unit": "h"}, {"measurement": "kinetics of MEK-1/2 phosphorylation", "setting": "[3]", "value": "paralleled the appearance of p42/44^MAPK"}, {"measurement": "effect on p42/44MAPK", "setting": "[4]", "value": "without effect"}, {"measurement": "LDL receptor expression in HeLa cells", "setting": "[5]", "value": "caused a increase in LDL receptor expression"}, {"measurement": "effect on expression of actin gene or sterol-sensitive gene SS", "setting": "[6]", "value": "without significantly affecting expression"}, {"measurement": "inhibition of p38MAPK α- and β-isoforms", "setting": "[7]", "value": "selectively inhibit both p38^MAPK α- and β-isoforms; also recorded: inhibited"}, {"measurement": "p42/44MAPK activity in HeLa cells", "setting": "[8]", "value": "induced p42/44^MAPK activity"}]}
